The nature of data set [1]: Moisture sorption isotherms (VTI SGA-100 Symmetric Vapor Analyzer). As to conditions: 25° C., 4-95% RH. The class given is physicochemical. How it is done:
Moisture sorption isotherms for N-1 were collected in a VTI SGA-100 Symmetric Vapor Analyzer using about 10 mg sample. The sample was dried at 60° C. until the loss rate of 0.0005 wt %/min was obtained for 10 minutes. The sample was tested at 25° C. and 4, 5, 15, 25, 35, 45, 50, 65, 75, 85, and 95% RH. Equilibration at each RH was reached when the rate of 0.0003 wt %/min for 35 minutes or a maximum of 600 minutes was achieved.

Data set [2] can be described thus: Relative thermodynamic stability of crystalline forms. The class given is physicochemical.

The text below walks through data of US7371864B2, “Crystalline forms of a factor Xa inhibitor” (Bristol-Myers Squibb Company, priority 2004, dated 2008).

Regarding `COc1ccc(-n2nc(C(C)(C)O)c3c2C(=O)N(c2ccc(-n4ccccc4=O)cc2)CC3)cc1` [Form N-1, 3-(1-hydroxy-1-methyl-ethyl)-1-(4-methoxy-phenyl)-6-[4-(2-oxo-2H-pyridin-1-yl)-phenyl]-1,4,5,6-tetrahydro-pyrazolo[3,4-c]pyridin-7-one], the “hygroscopicity from moisture sorption isotherms” value in data set [1] is “essentially non-hygroscopic”. Also, the “stability relative to Form N-3 (monotropic relationship)” value in data set [2] (all temperatures, inferred from Form N-3 melting ˜40° C. lower than Form N-1) is recorded as “more stable at all temperatures”. The “thermodynamic stability relative to other crystalline forms” value in data set [2] (room temperature) was “thermodynamically more stable form”.
